Publication PMC7909954 (eLife, 2021)
Several values for one entry are separate records, joined by “and”; a condition that tells them apart may be missing. Equal values may be shown once. Read-outs that look alike come from different tables or passages of the source.

Tests used:
mDOR [1] = target: T1, mDOR (Mus musculus, UniProt P32300); experiment: biochemical; conditions: read-out: Emax mDOR [35S]GTPγS
KOR [2] = target: T2, KOR (Homo sapiens, UniProt P41145); experiment: Radioligand binding counter-screen (NIMH PDSP); parameters: NIMH Psychoactive Drug Screening Program
T2 sequence (P41145 whole entry): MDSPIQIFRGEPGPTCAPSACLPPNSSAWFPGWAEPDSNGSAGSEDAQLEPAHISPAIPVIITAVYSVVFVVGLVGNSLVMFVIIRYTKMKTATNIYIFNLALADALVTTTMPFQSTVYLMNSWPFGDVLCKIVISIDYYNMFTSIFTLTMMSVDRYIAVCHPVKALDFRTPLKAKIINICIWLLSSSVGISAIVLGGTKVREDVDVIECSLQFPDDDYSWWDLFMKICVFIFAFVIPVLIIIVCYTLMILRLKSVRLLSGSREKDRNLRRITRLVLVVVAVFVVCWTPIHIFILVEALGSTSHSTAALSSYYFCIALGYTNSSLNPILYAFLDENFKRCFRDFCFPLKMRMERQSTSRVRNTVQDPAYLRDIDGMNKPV

DOR [3] = target: T3, DOR (Homo sapiens, UniProt P41143); experiment: Radioligand binding counter-screen (NIMH PDSP); parameters: National Institutes of Mental Health Psychoactive Drug Screen Program (service)
T3 sequence (P41143 whole entry): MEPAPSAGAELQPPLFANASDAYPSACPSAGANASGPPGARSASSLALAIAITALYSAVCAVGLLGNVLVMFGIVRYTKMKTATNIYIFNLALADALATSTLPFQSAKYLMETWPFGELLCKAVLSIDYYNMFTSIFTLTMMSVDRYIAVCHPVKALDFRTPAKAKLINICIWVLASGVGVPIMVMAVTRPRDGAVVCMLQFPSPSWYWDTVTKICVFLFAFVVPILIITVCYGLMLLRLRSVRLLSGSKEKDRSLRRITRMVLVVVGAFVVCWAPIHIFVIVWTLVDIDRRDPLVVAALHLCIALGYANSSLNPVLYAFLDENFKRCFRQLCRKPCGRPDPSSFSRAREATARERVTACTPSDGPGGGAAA

mMOR [4] = target: T4, mMOR (Mus musculus, UniProt P42866); experiment: cell-based
T4 sequence (P42866 whole entry): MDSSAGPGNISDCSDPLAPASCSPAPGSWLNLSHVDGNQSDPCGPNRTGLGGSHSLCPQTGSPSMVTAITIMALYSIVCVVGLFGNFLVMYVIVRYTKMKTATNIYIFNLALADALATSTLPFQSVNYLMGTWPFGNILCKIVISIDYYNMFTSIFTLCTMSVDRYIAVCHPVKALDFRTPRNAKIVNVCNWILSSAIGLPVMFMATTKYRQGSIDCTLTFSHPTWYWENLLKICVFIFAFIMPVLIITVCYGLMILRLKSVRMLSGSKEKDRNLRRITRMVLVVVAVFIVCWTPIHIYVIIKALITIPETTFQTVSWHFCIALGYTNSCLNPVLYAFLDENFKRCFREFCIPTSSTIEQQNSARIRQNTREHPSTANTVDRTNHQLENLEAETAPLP

SERT = target: T5, SERT (Homo sapiens, UniProt P31645); experiment: Radioligand binding counter-screen (NIMH PDSP)
T5 construct: NIMH Psychoactive Drug Screening Program
T5 sequence (P31645 whole entry, species assumed): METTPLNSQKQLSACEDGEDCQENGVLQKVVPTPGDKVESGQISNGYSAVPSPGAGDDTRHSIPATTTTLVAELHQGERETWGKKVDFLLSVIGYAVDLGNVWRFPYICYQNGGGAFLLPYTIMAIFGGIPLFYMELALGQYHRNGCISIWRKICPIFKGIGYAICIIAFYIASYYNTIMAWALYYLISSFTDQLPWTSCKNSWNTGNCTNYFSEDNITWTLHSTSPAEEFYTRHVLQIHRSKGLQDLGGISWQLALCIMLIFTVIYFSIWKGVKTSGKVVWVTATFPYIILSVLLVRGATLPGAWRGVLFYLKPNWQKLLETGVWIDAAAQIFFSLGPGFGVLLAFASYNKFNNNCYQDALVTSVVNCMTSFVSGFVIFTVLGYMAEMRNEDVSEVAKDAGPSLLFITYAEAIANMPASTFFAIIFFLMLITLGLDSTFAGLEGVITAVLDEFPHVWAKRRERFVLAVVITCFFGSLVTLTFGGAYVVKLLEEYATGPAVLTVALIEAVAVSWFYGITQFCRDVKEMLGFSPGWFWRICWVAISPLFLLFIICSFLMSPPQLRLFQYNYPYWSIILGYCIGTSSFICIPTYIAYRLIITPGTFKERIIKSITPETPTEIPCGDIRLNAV

mMOR [5] = target: T4, mMOR; experiment: cell-based; parameters: expressed in transfected cells; host or cells: HEK-293T
rKOR [6] = target: T6, rKOR (Rattus norvegicus, UniProt P34975); conditions: BRET, rodent receptors
T6 sequence (P34975 whole entry): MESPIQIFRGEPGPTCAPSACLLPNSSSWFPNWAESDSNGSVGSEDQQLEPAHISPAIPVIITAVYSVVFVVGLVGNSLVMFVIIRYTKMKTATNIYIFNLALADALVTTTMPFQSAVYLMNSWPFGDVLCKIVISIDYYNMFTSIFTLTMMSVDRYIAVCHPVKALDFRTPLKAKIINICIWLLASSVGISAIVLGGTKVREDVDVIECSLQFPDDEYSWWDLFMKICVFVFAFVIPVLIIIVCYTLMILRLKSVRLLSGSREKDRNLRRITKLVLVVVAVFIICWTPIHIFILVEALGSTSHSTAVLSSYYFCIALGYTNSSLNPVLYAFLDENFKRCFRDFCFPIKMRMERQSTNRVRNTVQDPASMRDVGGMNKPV

mMOR [7] = target: T4, mMOR; experiment: biochemical
MOR [8] = target: T7, MOR (Homo sapiens, UniProt P35372); experiment: Radioligand binding counter-screen (NIMH PDSP); parameters: NIMH Psychoactive Drug Screening Program
T7 sequence (P35372 whole entry): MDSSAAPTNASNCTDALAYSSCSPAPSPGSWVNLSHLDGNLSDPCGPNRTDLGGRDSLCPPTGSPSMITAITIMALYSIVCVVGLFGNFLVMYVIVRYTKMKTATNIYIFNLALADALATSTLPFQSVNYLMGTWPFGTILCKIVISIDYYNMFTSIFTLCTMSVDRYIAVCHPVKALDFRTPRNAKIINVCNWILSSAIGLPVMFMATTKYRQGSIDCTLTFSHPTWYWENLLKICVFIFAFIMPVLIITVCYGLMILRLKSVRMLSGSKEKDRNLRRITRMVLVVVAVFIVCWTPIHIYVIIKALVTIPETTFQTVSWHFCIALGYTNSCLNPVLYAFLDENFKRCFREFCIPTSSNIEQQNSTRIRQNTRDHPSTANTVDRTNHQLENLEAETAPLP

DOR [9] = target: T3, DOR; experiment: cell-based
KOR [10] = target: T2, KOR; experiment: cell-based
mKOR [11] = target: T8, mKOR (Mus musculus, UniProt P33534); experiment: biochemical
T8 sequence (P33534 whole entry): as the sequence (P34975 whole entry) above, with E11D, A17S, P51S, V308A counted along it

Y312W-hKOR = Y312W-hKOR (Homo sapiens, UniProt P41145, Y312W); experiment: cell-based
Sequence of Y312W-hKOR (P41145 whole entry Y312W): as the sequence (P41145 whole entry) above, with Y312W counted along it

rKOR [12] = target: T6, rKOR; experiment: cell-based
KOR [13] = target: T2, KOR; experiment: cell-based; remark: listed apart in the source
mDOR [14] = target: T1, mDOR; conditions: binding assays
KOR [15] = target: T2, KOR
mMOR [16] = target: T4, mMOR; experiment: biochemical; remark: listed apart in the source
α2C-adrenoreceptors = target: T9, α2C-adrenoreceptors (Homo sapiens, UniProt P18825); experiment: Radioligand binding counter-screen (NIMH PDSP)
T9 construct: NIMH Psychoactive Drug Screening Program
T9 sequence (P18825 1-462): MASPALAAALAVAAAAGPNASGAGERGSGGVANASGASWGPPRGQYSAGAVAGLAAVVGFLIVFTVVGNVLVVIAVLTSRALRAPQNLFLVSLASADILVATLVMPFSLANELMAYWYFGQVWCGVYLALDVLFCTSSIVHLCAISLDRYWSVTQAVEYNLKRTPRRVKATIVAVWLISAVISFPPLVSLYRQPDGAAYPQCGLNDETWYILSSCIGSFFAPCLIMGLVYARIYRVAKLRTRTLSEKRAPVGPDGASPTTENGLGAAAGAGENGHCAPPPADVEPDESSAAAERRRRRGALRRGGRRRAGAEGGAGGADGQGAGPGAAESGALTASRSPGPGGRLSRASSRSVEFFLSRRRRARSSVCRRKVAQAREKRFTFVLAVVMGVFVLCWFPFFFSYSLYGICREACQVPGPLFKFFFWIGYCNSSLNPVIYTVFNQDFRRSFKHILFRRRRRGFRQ

[17] = target: all screened targets except SERT and α2C-adrenoreceptors; experiment: Radioligand binding counter-screen (NIMH PDSP), remaining targets; conditions: non-opioid targets
MOR [18] = target: T7, MOR; experiment: cell-based
mDOR [19] = target: T1, mDOR; experiment: cell-based
DOR [20] = target: T3, DOR; experiment: cell-based; remark: listed apart in the source
mKOR [21] = target: T8, mKOR; experiment: biochemical; remark: listed apart in the source
[22] = transduction coefficient log(T/KA)

T1 sequence (P32300 whole entry): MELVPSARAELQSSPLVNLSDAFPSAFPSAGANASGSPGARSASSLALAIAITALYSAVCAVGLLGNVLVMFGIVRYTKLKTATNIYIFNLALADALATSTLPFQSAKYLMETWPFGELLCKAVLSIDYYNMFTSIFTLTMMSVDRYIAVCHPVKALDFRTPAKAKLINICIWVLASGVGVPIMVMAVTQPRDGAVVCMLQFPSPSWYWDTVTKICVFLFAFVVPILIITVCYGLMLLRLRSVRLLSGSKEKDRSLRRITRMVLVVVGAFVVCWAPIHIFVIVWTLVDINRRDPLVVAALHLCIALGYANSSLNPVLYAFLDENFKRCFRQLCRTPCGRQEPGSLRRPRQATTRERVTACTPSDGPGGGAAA

SMILES: NCc1cccc(C(=O)N[C@@H]2CCC3C4Cc5ccc(O)c6c5[C@@]3(CCN4CC3CC3)C2O6)c1 (stereo partly drawn) [MP1207, 3-(Aminomethyl)-N-((7R,12bS)−3-(cyclopropylmethyl)−9-hydroxy-2,3,4,4a,5,6,7,7a-octahydro-1H-4,12-methanobenzofuro[3,2-e]isoquinolin-7-yl)benzamide]
- Emax (mDOR [1]): 10 to 15%
- Ki (KOR [2]): 0.39 nM
- Ki (DOR [3]): 60.1 nM
- EC50 (mMOR [4]; EC50 G protein activation (BRET) mMOR): 3.61 nM
- Emax (mMOR [4]; HEK-293T, read-out: Emax% G protein activation (BRET) mMOR): 42 ± 2.6%
- Ki (SERT): 356 nM
- selectivity for MOR and KOR over the nearest non-opioid target (SERT; from counter-screen Ki): 900 fold
- arrestin recruitment at mMOR (in words) (mMOR [5]): No recruitment of βarrestin-2
- arrestin recruitment at rKOR (in words) (rKOR [6]): No recruitment of βarrestin-2
- EC50 (mMOR [7]; EC50 mMOR [35S]GTPγS, ± SEM): 1.3 nM and 1.29 nM
- Emax (mMOR [7]; read-out: Emax mMOR [35S]GTPγS): 41 ± 1%
- Ki (MOR [8]): 0.39 nM
- EC50 (DOR [9]; EC50 cAMP inhibition hDOR): 11.4 nM
- Emax (DOR [9]; HEK-293T, read-out: Emax% cAMP inhibition hDOR): 38 ± 2%
- EC50 (KOR [10]; EC50 cAMP inhibition hKOR): 0.11 nM
- Emax (KOR [10]; HEK-293T, read-out: Emax% cAMP inhibition hKOR): 90 ± 1.7%
- EC50 (KOR [10]; pEC50 cAMP inhibition hKOR, ± SEM): 0.105 nM
- Ki (mKOR [11]): 0.39 ± 0.05 nM
- EC50 (Y312W-hKOR): 0.16 nM
- Emax (Y312W-hKOR; read-out: Emax% cAMP inhibition Y312W-hKOR): 95 ± 1.8%
- EC50 (rKOR [12]): 1.13 nM
- Emax (rKOR [12]; HEK-293T, read-out: Emax% G protein activation (BRET) rKOR): 32 ± 2.3%
- EC50 (KOR [13]; EC50 arrestin recruitment (Tango) hKOR): 3.97 nM
- Emax (KOR [13]; HTLA, read-out: Emax% arrestin recruitment (Tango) hKOR): 37 ± 2%
- selectivity for MOR and KOR over DOR (mDOR [14]): more than 40 fold
- ΔΔlog RA (cAMP-Tango) hKOR (KOR [15]): 0.903±0.026
- Bias factor (cAMP-Tango) hKOR (KOR [15]; >1 G protein bias, <1 arrestin bias, vs U50,488h): 8
- Log RA cAMP hKOR (KOR [15]; [22]): 9.902±0.004
- LogRA Tango hKOR (KOR [15]; [22]): 7.97±0.024
- ΔlogRA Tango hKOR (KOR [15]; vs U50,488h): -0.176±0.025
- ΔlogRA cAMP hKOR (KOR [15]; vs U50,488h): 0.73±0.006
- Ki (mMOR [16]): 0.23 ± 0.02 nM
- Ki (α2C-adrenoreceptors): 2980 nM
- Ki [17]: > 10000 nM
- Emax (MOR [18]; HEK-293T, read-out: Emax% cAMP inhibition hMOR): 33 ± 1.4%
- EC50 (MOR [18]; pEC50 cAMP inhibition hMOR): 0.0339 nM
- EC50 (mDOR [19]; EC50 G protein activation (BRET) mDOR): 116 nM
- Emax (mDOR [19]; HEK-293T, read-out: Emax% G protein activation (BRET) mDOR): 52 ± 2.3%
- EC50 (DOR [20]; EC50 arrestin recruitment hDOR, Tango): 64.1 nM
- Emax (DOR [20]; HTLA, read-out: Emax% arrestin recruitment hDOR): 34 ± 3.7%
- EC50 (mKOR [21]; EC50 mKOR [35S]GTPγS, ± SEM): 1.5 nM and 1.52 nM
- Emax (mKOR [21]; read-out: Emax mKOR [35S]GTPγS): 39.3 ± 1.3%
